Results on 1 compound are retold here after publication PMC8945814, “The Pyrazolo[3,4-d]Pyrimidine Derivative Si306 Encapsulated into Anti-GD2-Immunoliposomes as Therapeutic Treatment of Neuroblastoma” (Biomedicines, 2022).

Each structure is given as a SMILES string.

Series [1] concerns subcutaneous NB animal model. The note with it: oral administration; cited from earlier work.
The conditions of series [2]: cited from earlier work.
A further series deals with c-Src tyrosine kinase. The note with it: cited from earlier work.
A further series relates to IMR-32. As to the kind of experiment: MTT cytotoxicity assay. It is filed as cell-based. The conditions noted are these: Homo sapiens, 24 h exposure, 96 h total, ± S.D. The method, then:
(§1) Cytotoxicity experiments were performed to evaluate the effectiveness of Si306, either free (dissolved in DMSO) or encapsulated into untargeted and GD2-targeted liposomes. Briefly, IMR-32, HTLA-230 and SH-SY5Y cells were seeded in 96-well plates (8 × 10^3 cells/well). Human fibroblasts were used as GD2-negative healthy control cells (5 × 10^3 cells/well). The day after seeding, cells were incubated with increasing concentration of Si306 (0.1, 1.0, 10.0 and, 100.0 μM) either free or liposomes-encapsulated, for 24 h at 37 °C. Cells were then washed twice with PBS before replacing them with fresh complete medium and incubating for an additional 72 h (total incubation time equal to 96 h). At the end of the incubation, the MTT (Sigma) assay was performed. The tetrazolium dye was added, then plates were incubated for 3–4 h at 37 °C; formazan crystals were then dissolved in acid isopropanol, and then the optical density of the stained solution was quantified by the use of a Multiskan™ FC Microplate Photometer (Thermo Fisher Scientific Italia, Monza, Italy) at the dual wavelengths of 570 and 650 nm.
In general terms: Formazan colour is commonly taken as a measure of viable cells.

The test system of a further series is HTLA-230. The series can be described thus: MTT cytotoxicity assay. It is filed as cell-based. The conditions noted are these: Homo sapiens, 24 h exposure, 96 h total, ± S.D. Here is the method: as §1
The next series relates to SH-SY5Y. The series can be described thus: MTT cytotoxicity assay. The note with it: Homo sapiens, 24 h exposure, 96 h total, ± S.D. It is filed as cell-based. Here is the method:
as §1

The test system of the next series is non-tumoral cells. The conditions noted are these: cited from earlier work.
On the set-up of series [3]: method as in PMID 31248184. The conditions noted are these: 25 mg/kg, free compound in vivo; cited from earlier work.

On to `ClC(Cn1ncc2c(Nc3cccc(Br)c3)nc(SCCN3CCOCC3)nc21)c1ccccc1` (centres unmarked) [Si306], for which the tumor growth entry in series [1] is given as “delay of tumor growth”. For the same compound, in series [2], the water solubility result is listed as “low water solubility”. Besides, the inhibitory constant (Ki) at c-Src tyrosine kinase was 0.13 µM. The IC50 in the series with IMR-32 stood at 5.9 ± 1.4 µM; in the series on HTLA-230, 2.9 ± 0.3 µM; with SH-SY5Y it was 19.6 ± 0.7 µM. Moreover, the “activity in non-tumoral cells” value in the series on non-tumoral cells was “negligible activity”. The signs of toxicity entry in series [3] was “without signs of toxicity”.

Usually Ki stands for the dissociation constant of the complex between target and ligand, obtained from inhibition or displacement. Broadly, the IC50 is the midpoint of a concentration-inhibition curve. High values mean weaker potency in that assay, low ones greater potency in that assay.
